Test [1] has as its target T1, human CCR5 (Homo sapiens, UniProt P51681).
T1 construct: expressed in transfected cells; host or cells: CHO cells co-expressing Gα16, under puromycin and zeocin selection; membrane preparation
The experiment in a line: CCR5 receptor membrane binding assay ([125I]RANTES, CHO (Gα16) human CCR5 cell membranes, SPA beads). The settings on record: bound radioactivity after 6 h, read-out: hKi [nM] (CCR5). As to the method: The above exemplary substances have been tested for binding to CCR5 using a binding assay as outlined herein below:
CHO, (Gα16) human CCR5 cells were cultured under standardized conditions at 37° C. and 5% CO2 in a humidified incubator. CHO (Gα16) human CCR5 cells were cultivated in Ham's F12 (Invitrogen; #31765068) supplemented with 10 μg/ml Puromycin (Invitrogen; #A11139-03), 200 μg/ml Zeocin (Invitrogen; #45-0003) and 10% FCS (Gibco; #10500-064).
Membranes were prepared from CHO (Gα16) human CCR5 cells. Cells were cultured on […] plates (Nunc; #166508) 2-3 days before membrane preparation (usually 80-100 plates to obtain 80 mg protein).
Cells were scraped off the plates with a big scraper and washed with 2×5 ml ice cold Phosphate Buffer Saline (PBS; Invitrogen; #14040-174). Cell suspension was collected in a glass bottle (on ice). Cell suspension was harvested at 1400 rpm and 4° C. for 10 min and washed in PBS. Cell pellet was resuspended in 40 ml PBS with protease inhibitor mix ‘complete’ (Roche; #11873580001; 1 tablet/50 ml).
For gentle cell disruption the membrane preparation was performed by using a homogenizer (potter). Cells were homogenized for 5-10 min.
Membranes were centrifuged at 1000 rpm and 4° C. for 5 min Supernatant (=membrane) was harvested in a new falcon tube and remaining cell pellet homogenized again for 5-10 min with PBS with protease inhibitor mix and centrifuged. Collected supernatant was centrifuged at 40000 rpm and 4° C. for 30 min to sediment the cell membranes.
The membranes were resuspended in 25 mM HEPES, 25 mM MgCl2, 1 mM CaCl2, 10% Glycerine for storage in aliquots at −80° C. Membranes were diluted to a concentration of 5 mg/ml (Bradford Assay).
(§1) Receptor Membrane Binding Assay:
[^125I]RANTES, Stock: 1825 Ci/mmol, 25 μCi (Bio Trend #A3-AI-676) was solved in 1000 μl assay buffer (100 mM NaCl; 10 mM MgCl2; 50 mM Tris-HCl; 1 mM EDTA; 0.1% BSA, pH 7.6), stored at −20° C.
CHO (Gα16) human CCR5 membrane were solved on ice and adjusted with assay buffer to a concentration of 2.5 μg/15 μl.
Amersham Biosciences PVT-WGA Beads (GE Healthcare; #RPNQ0001) were adjusted with assay buffer to a concentration of 8 mg/ml. For preparation of the membrane-bead-suspension, membranes and beads were incubated for 30 min at RT under rotation with a ratio of 1:2.
Test compounds dissolved in 100% DMSO to a concentration of 10 mM and are further diluted with 100% DMSO to 1 mM. All additional compound dilutions were obtained with assay buffer, final 1% DMSO. 7 μl compound dilution, 45 μl membrane-bead-suspension and 10 μl [^125I]RANTES (ca. 20000 cpm/10 μl) were incubated at RT. Bound radioactivity was determined by scintillation counter after 6 h. Determination of affinity of test compounds (dissociation constant Ki) is calculated by iterative fitting of experimental data using the “easy sys” program, which is based on law of mass action (Schittkowski K. (1994), Numerische Mathematik, Vol. 68, 129-142).

Test [2] has as its target T2, CCR2 (Homo sapiens, UniProt P41597).
T2 construct: Membranes were prepared from THP-1 cells; endogenous in cells; host or cells: THP-1 (human acute monocytic leukaemia cells), membrane preparation
T2 sequence (P41597 1-360 isoform P41597-2): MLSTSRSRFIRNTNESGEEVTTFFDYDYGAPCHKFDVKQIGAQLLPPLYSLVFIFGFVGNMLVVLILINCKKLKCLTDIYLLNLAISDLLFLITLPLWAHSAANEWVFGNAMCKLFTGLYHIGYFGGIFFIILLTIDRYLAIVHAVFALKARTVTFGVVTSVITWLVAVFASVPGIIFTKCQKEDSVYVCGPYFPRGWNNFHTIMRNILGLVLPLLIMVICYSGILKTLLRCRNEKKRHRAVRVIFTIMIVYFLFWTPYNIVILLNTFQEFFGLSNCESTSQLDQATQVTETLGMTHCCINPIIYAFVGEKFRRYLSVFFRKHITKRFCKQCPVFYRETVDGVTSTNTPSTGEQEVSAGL
The experiment in a line: CCR2 receptor membrane binding assay ([125I]MCP-1, THP-1 cell membranes, SPA beads). The settings on record: THP-1 membranes, [125I]MCP-1, bound radioactivity after 8 h; read-out: hKi [nM](CCR2). How it is done:
The above exemplary substances have been tested for binding to CCR2 using a binding assay as outlined herein below:
THP-1 cells (human acute monocytic leukaemia cells) were cultured under standardized conditions at 37° C. and 5% CO2 in a humidified incubator. THP-1 cells were cultivated in RPMI 1640 medium (Gibco 21875) containing 1% MEM-NEAA (Gibso 11140) 2 mM L-glutamine, 1.5 g/L sodium bicarbonate, 4.5 g/L glucose, 10 mM HEPES and 1.0 mM sodium pyruvate, 90%; 10% fetal calf serum (FCS Gibco 10500-064).
Membranes were prepared from THP-1 cells. THP-1 cells were centrifuged at 300×g at 4° C. for 10 min. The cell pellet was resuspendet in Phosphate Buffer Saline (PBS, including 10 μM Pefabloc and a protease inhibitor mix ‘complete’, Boehringer Mannheim (1 tablet/50 ml)), to a concentration of […]. The membrane preparation was performed by disrupting the cells by nitrogen […] (at 50 bar, for 1 h) in a “Nitrogen Bombe” (Parr Instrument). Cell debris was removed by centrifugation (800×g at 4° C., 1 min) The supernatant was centrifuged at 80000×g, 4° C. for 30 min to sediment the cell membranes. Usually 50 mg of protein (Bradford assay) were yielded from 1×10E9 cells. The membranes were resuspendet in 25 mM HEPES, 25 mM MgCl2, 1 mM CaCl2, 10% Glycerine for storage in aliquots at −80° C. in 25 mM HEPES, 25 mM MgCl2, 1 mM CaCl2, 10% Glycerine and stored at −80° C.
as §1
Perkin Elmer NEX 332 Jod^125 MCP-1, Stock: 2200 Ci/mmol solved in 2000 μl assay buffer, stored at −20° C. THP-1 membrane were adjusted with 25 mM HEPES, pH 7.2; 5 mM MgCl2; 0.5 mM CaCl2; 0.2% BSA assay buffer to a concentration of 2.5 μg/15 μl. Amersham Biosciences PVT-WGA Beads (RPNQ0001) were adjusted with assay buffer to a concentration of 0.24 mg/30 μl. For preparation of the membrane-bead-suspension membranes and beads were incubated for 30 min at RT under rotation (60 rpm) with a ratio of 1:2. Test compounds dissolved in 100% DMSO to a concentration of 10 mM and are further diluted with 100% DMSO to 1 mM. All additional compound dilutions were obtained with assay buffer, final 1% DMSO. Compounds, membrane-bead-suspension and [^125I]MCP-1 (ca. 25000 cpm/10 μl) were incubated. Bound radioactivity was determined by scintillation counter after 8 h. Determination of affinity of test compounds (dissociation constant hKi) is calculated by iterative fitting of experimental data using the “easy sys” program, which is based on law of mass action (Schittkowski K. (1994), Numerische Mathematik, Vol. 68, 129-142).

T1 sequence (P51681 whole entry): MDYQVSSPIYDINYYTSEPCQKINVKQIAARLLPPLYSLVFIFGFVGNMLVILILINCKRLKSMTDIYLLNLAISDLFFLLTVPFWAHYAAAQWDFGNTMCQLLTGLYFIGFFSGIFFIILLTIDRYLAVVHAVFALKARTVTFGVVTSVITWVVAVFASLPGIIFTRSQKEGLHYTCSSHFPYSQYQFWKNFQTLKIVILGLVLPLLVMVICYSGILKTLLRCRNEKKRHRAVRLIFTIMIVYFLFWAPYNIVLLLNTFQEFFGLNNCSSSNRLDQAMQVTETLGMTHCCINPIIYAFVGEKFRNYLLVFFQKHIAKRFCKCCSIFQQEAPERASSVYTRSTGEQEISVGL

As for `Cc1c(NC[C@H]2CCC[C@@H](c3ccc(C(F)(F)F)cc3)O2)nc(C2CCOCC2)nc1C(=O)N1CCC(N[C@H]2CCOC[C@H]2F)CC1` [Example 16], the results for the Ki in test [1] and in test [2] were 210 nM and 1 nM, respectively.
For `CO[C@H]1COCC[C@H]1NC1CCN(C(=O)c2nc(-c3cc(C)on3)nc(N3CCc4ccc(C(F)(F)F)cc4C3)c2C)CC1` [Example 26] the same measures were 130 nM and 5 nM.
For `CO[C@H]1COCC[C@H]1NC1CCN(C(=O)c2nc(C3CCOCC3)nc(N3CCc4ccc(C(F)(F)F)cc4C3)c2C)CC1` [Example 11] the same measures were 430 nM and 0.8 nM.
For `Cc1cc(-c2nc(C(=O)N3CCC(N[C@@H]4CCOC[C@@H]4F)CC3)c(C)c(N3CCc4ccc(C(F)(F)F)cc4C3)n2)no1` [Example 28] the same measures were 1350 nM and 11 nM.
Turning to `Cc1c(C(=O)N2CCC(N[C@H]3CCOC[C@H]3F)CC2)nc(CF)nc1N1CCc2ccc(C(F)(F)F)cc2C1` (relative stereo) [Example 45], the figures for the Ki in test [1] and in test [2] were 3450 nM and 17 nM, respectively.
Turning to `Cc1c(C(=O)N2CCC(N[C@H]3CCOC[C@H]3F)CC2)nc(C2CCOCC2)nc1N1CCc2ccc(C(F)(F)F)cc2C1` [Example 13], the Ki in test [1] came out at 1300 nM; in test [2] it was 5 nM.
For `Cc1cc(-c2nc(C(=O)N3CCC(N[C@H]4CCOC[C@H]4F)CC3)c(C)c(N3CCc4ccc(C(F)(F)F)cc4C3)n2)no1` [Example 27] the same measures were 750 nM and 15 nM.
In the case of `Cc1c(Nc2ccc(Cl)c(Cl)c2)nc(CF)nc1C(=O)N1CCC(NC2CCOCC2F)CC1` (stereo not shown) [Example 19], the Ki was determined as 350 nM in test [1] and 3 nM in test [2].
As for `CO[C@@H]1COCC[C@@H]1NC1CCN(C(=O)c2nc(CF)nc(Nc3ccc(Cl)c(Cl)c3)c2C)CC1` [Example 20], the Ki was found to be 31 nM in test [1] and 0.6 nM in test [2].
On the same counts, the results for `CO[C@@H]1COCC[C@@H]1NC1CCN(C(=O)c2nc(C(F)(F)F)nc(N3CCc4ccc(C(F)(F)F)cc4C3)c2C)CC1` [Example 2] are 150 nM and 2 nM.
On the same counts, the results for `CO[C@@H]1COCC[C@@H]1NC1CCN(C(=O)c2nc(-c3cc(C)on3)nc(N3CCc4ccc(C(F)(F)F)cc4C3)c2C)CC1` [Example 29] are 53 nM and 2 nM.
On the same counts, the results for `CO[C@H]1COCC[C@H]1NC1CCN(C(=O)c2nc(CF)nc(Nc3ccc(Cl)c(Cl)c3)c2C)CC1` [Example 21] are 75 nM and 2 nM.
For `CO[C@@H]1COCC[C@@H]1NC1CCN(C(=O)c2nc(C(F)F)nc(N3CCc4ccc(C(F)(F)F)cc4C3)c2C)CC1` [Example 35], the results for the Ki in test [1] and in test [2] were 160 nM and 2 nM, respectively.
Regarding `Cc1c(C(=O)N2CCC(N[C@@H]3CCOC[C@@H]3F)CC2)nc(C2CCOCC2)nc1N1CCc2cc(C(F)(F)F)ccc2C1` [Example 8], the Ki in test [1] was determined as 5870 nM; in test [2], 11 nM.
For `CO[C@@H]1COCC[C@@H]1NC1CCN(C(=O)c2nc(C3CCOCC3)nc(N3CCc4cc(C(F)(F)F)ccc4C3)c2C)CC1` [Example 4] the same measures were 310 nM and 2 nM.
On the same counts, the results for `CO[C@@H]1COCC[C@@H]1NC1CCN(C(=O)c2nc(CF)nc(N3CCc4ccc(C(F)(F)F)cc4C3)c2C)CC1` [Example 17] are 180 nM and 2 nM.
For `CO[C@@H]1COCC[C@@H]1NC1CCN(C(=O)c2nc(-c3cc(C)on3)nc(N3CCc4cc(C(F)(F)F)ccc4C3)c2C)CC1` [Example 7] the same measures were 380 nM and 8 nM.
As to `CO[C@H]1COCC[C@H]1NC1CCN(C(=O)c2nc(C(F)(F)F)nc(N3CCc4ccc(C(F)(F)F)cc4C3)c2C)CC1` [Example 1], the values for the Ki in test [1] and in test [2] were 265 nM and 3 nM, respectively.
For `CO[C@H]1COCC[C@H]1NC1CCN(C(=O)c2nc(C(F)F)nc(N3CCc4ccc(C(F)(F)F)cc4C3)c2C)CC1` [Example 34], the Ki in test [1] stood at 190 nM; in test [2], 4 nM.
On the same counts, the results for `Cc1cc(-c2nc(C(=O)N3CCC(N[C@@H]4CCOC[C@@H]4F)CC3)c(C)c(N3CCc4cc(C(F)(F)F)ccc4C3)n2)no1` [Example 6] are 17300 nM and 20 nM.

The values above are taken from patent US9108958B2, “Selective CCR2 antagonists” (Boehringer Ingelheim International GmbH, priority 2011, dated 2015).
